Assay results taken from US20090068290A1, “BIFEPRUNOX DOSES FOR TREATING SCHIZOPHRENIA” (priority 2006, published 2009).

Legend:
[1] = tested on: adult subjects with schizophrenia; test: PANSS negative symptom subscale score, Clinical Study Three; assay type: in vivo, human; conditions: for mean change (SD) from Baseline to Endpoint in PANSS Negative Symptom subscale score: LOCF, ITT
Text: SECONDARY OBJECTIVES To assess the efficacy of bifeprunox in treating schizophrenia using the Positive Symptom sub-scale score of the PANSS, the Negative Symptom sub-scale score of the PANSS, the General Psychopathology sub-scale of the PANSS, Brief Psychiatric Rating Scale (BPRS) total score derived from the PANSS, BPRS psychosis score derived from the PANSS, the Clinical Global Impression Severity of Illness score (CGI-S), the Clinical Global Impression Improvement score (CGI-I), CGI-I responder rate, PANSS responder rate based on the PANSS total score, Calgary Depression Scale for Schizophrenia (CDSS), and Subject Satisfaction rating.
There were four treatment arms in this study, approximately 144 subjects per arm. […] After completing the Single-Blind Placebo Lead-in Period of at least three days, bifeprunox-treated subjects were titrated from 0.25 mg up to 20 mg/day or 30 mg/day according to a standardized titration scheme over a seven- or eight-day period, respectively. When the assigned dose was reached, subjects were maintained at that dose for the remainder of the six week treatment period. […] Subjects were hospitalized (if not already inpatients) after eligibility for study entry was verified, starting from the Screening Visit until at least 10 days after Baseline. Subjects could be hospitalized longer than 10 days if considered medically necessary by the Investigator. Rating scale assessments for efficacy and abnormal movement disorders were done weekly except for Week 5. […] Subject satisfaction with study medication was assessed at Week 6.

[2] = tested on: adult subjects with schizophrenia; test: PANSS responder rates, Clinical Study Three; assay type: in vivo, human; conditions: for PANSS 20% definition response rate No, % / PANSS 20% definition response rate Yes, %: Week 6/Endpoint, LOCF; for 20% PANSS responder rate: Endpoint LOCF
Protocol: (§1) There were four treatment arms in this study, approximately 144 subjects per arm. […] After completing the Single-Blind Placebo Lead-in Period of at least three days, bifeprunox-treated subjects were titrated from 0.25 mg up to 20 mg/day or 30 mg/day according to a standardized titration scheme over a seven- or eight-day period, respectively. When the assigned dose was reached, subjects were maintained at that dose for the remainder of the six week treatment period. […] Subjects were hospitalized (if not already inpatients) after eligibility for study entry was verified, starting from the Screening Visit until at least 10 days after Baseline. Subjects could be hospitalized longer than 10 days if considered medically necessary by the Investigator. Rating scale assessments for efficacy and abnormal movement disorders were done weekly except for Week 5. Safety assessments were performed at Screening, during treatment and at the end of the study. Subject satisfaction with study medication was assessed at Week 6. Samples of whole blood were obtained at Weeks 2, 4, and 6 for determination of bifeprunox in plasma.
CLINICAL STUDY THREE. A PANSS responder was defined as a subject whose PANSS total score decreased by 20% or more from Baseline to Endpoint. As exploratory analyses, responder rates were also analyzed using a 30%, 35%, 40%, and 50% definition of responder.

[3] = tested on: adult subjects with schizophrenia; test: Adverse events (TEAE, SAE, special interest, discontinuation, EPS-related TEAE), Clinical Study Three; conditions: for safety and tolerability: bifeprunox 20 mg and 30 mg, 6 weeks
Protocol: as §1
EPS were assessed using treatment-emergent adverse events such as akathisia, dyskinesia, parkinsoniam, etc. and/or formal rating scales such as SAS, BAS, and/or AIMS.

## O=c1[nH]c2cccc(N3CCN(Cc4cccc(-c5ccccc5)c4)CC3)c2o1 [Bifeprunox, 7-[4-([1,1′-biphenyl]-3-ylmethyl)-1-piperazinyl]-2(3H)-benzoxazolone]
[1]; bifeprunox 20 mg
  mean change (SD) from Baseline to Endpoint in PANSS Negative Symptom subscale score: −3.3 (5.0)
[1]; bifeprunox 30 mg, Endpoint LOCF
  PANSS Negative Symptom subscale score, treatment effect (bifeprunox—placebo): −0.6
[1]; bifeprunox 30 mg
  mean change (SD) from Baseline to Endpoint in PANSS Negative Symptom subscale score: −3.1 (5.2)
[2]; 20 mg
  PANSS 20% definition response rate No, %: 58%
  PANSS 20% definition response rate Yes, %: 42%
[2]; 30 mg
  PANSS 20% definition response rate No, %: 61%
  PANSS 20% definition response rate Yes, %: 39%
[2]; bifeprunox 20 mg
  20% PANSS responder rate: 42%
[2]; bifeprunox 30 mg
  20% PANSS responder rate: 39%
[3]; BX 20 mg
  AKATHISIA, %: 3%
  CONVULSION, %: 1%
  DIZZINESS, %: 8%
  DYSKINESIA, %: 1%
  EXTRAPYRAMIDAL DISORDER, %: 3%
  HEADACHE, %: 19%
  LOSS OF CONSCIOUSNESS, %: 1 (<1%)
  MYALGIA, %: 1 (<1%)
  NECK PAIN, %: 1%
  NERVOUS SYSTEM DISORDERS, %: 38%
  PAIN IN EXTREMITY, %: 1 (<1%)
  SEDATION, %: 5%
  SINUS HEADACHE, %: 1 (<1%)
  SOMNOLENCE, %: 3%
  TARDIVE DYSKINESIA, %: 1 (<1%)
  TREMOR, %: 1%
[3]; BX 40 mg
  AKATHISIA, %: 3%
  CYST, %: 1 (<1%)
  DIZZINESS, %: 10%
  DYSKINESIA, %: 1%
  EXTRAPYRAMIDAL DISORDER, %: 1 (<1%)
  HEADACHE, %: 19%
  MUSCULOSKELETAL STIFFNESS, %: 1 (<1%)
  MYALGIA, %: 1%
  NEOPLASMS BENIGN, MALIGNANT AND UNSPECIFIED (INCL CYSTS AND POLYPS), %: 1 (<1%)
  NERVOUS SYSTEM DISORDERS, %: 37%
  NEUROLOGICAL SYMPTOM, %: 1 (<1%)
  PAIN IN JAW, %: 1 (<1%)
  PARAESTHESIA, %: < 1%
  SEDATION, %: 7%
  SOMNOLENCE, %: 3%
  SYNCOPE VASOVAGAL, %: 1%
  TREMOR, %: 3%
[3]; Bifeprunox 30 mg
  incidence of dizziness (TEAE of special interest): 10%
  orthostatic hypotension (special interest TEAE): three subjects
  subjects with at least one AE that led to study termination: 7%
  subjects with at least one SAE: 8%
  subjects with at least one TEAE: 77%
  subjects with at least one special interest TEAE: 13%
  syncope vasovagal (special interest TEAE): two subjects
[3]; bifeprunox 20 mg
  incidence of dizziness (TEAE of special interest): 8%
  subjects with at least one AE that led to study termination: 8%
  subjects with at least one SAE: 10%
  subjects with at least one TEAE: 82%
  subjects with at least one special interest TEAE: 11%
[3]
  safety and tolerability: well tolerated at both dose levels
[3]; listed as bifeprunox
  safety and tolerability: safe and well tolerated
[3]; bifeprunox groups (20, 30 mg), each
  subjects who discontinued study medication due to an AE: 8%
